Laboratory results from patent US4997849A, “Microbial transformation of simvastatin” (Merck & Co., Inc., priority 1989, dated 1991).

How the values were obtained:
HMG-CoA reductase [1] = target: T1, HMG-CoA reductase (Rattus norvegicus, UniProt P51639); experiment: intrinsic HMG-CoA reductase inhibition activity, in vitro protocol of J. Med. Chem., 1985, 28, page 347; format: biochemical; settings: potassium salt
T1 construct: from tissue
T1 sequence (P51639 1-887): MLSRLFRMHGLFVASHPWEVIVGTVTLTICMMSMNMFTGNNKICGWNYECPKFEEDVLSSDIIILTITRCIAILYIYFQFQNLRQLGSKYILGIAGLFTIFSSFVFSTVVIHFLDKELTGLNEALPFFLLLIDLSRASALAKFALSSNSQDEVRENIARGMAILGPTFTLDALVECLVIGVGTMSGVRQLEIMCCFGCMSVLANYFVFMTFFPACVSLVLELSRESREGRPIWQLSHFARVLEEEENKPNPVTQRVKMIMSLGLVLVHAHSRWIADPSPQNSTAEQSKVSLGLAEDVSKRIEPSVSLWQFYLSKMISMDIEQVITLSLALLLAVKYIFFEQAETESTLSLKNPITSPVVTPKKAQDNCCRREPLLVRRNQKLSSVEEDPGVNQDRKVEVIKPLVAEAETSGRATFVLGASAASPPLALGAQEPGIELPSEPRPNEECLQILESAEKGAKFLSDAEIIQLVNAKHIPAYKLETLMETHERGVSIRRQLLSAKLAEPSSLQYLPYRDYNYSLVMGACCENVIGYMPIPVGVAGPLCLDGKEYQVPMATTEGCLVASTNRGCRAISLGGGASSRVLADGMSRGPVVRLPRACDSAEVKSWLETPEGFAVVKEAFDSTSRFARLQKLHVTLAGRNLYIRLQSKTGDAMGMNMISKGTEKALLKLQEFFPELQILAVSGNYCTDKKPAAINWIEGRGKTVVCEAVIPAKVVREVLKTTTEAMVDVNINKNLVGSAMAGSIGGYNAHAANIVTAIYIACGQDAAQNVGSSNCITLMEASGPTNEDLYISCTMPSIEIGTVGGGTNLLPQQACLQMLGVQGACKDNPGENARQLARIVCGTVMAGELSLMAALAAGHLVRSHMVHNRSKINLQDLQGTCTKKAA
Protocol: The intrinsic HMG-CoA reductase inhibition activity of the claimed compounds is measured in the in vitro protocol described in J. Med. Chem., 1985, 28, page 347.

[2] = reversion of free dihydroxy acid to parent lactone on standing; format: physicochemical; settings: on standing at room temperature
Protocol: The sodium salt of the compound II from Example 8 is dissolved in 2 ml of ethanol-water (1:1; v:v) and added to 10 ml of 0.1N hydrochloric acid from which the dihydroxy acid is extracted with ethyl acetate. The organic extract is washed once with water, dried (Na2 SO4), and evaporated in vacuo with a bath temperature not exceeding 30° C.

HMG-CoA reductase [3] = target: T2, HMG-CoA reductase (Homo sapiens, UniProt P04035); settings: relative to lovastatin; cited from earlier work
T2 sequence (P04035 1-888): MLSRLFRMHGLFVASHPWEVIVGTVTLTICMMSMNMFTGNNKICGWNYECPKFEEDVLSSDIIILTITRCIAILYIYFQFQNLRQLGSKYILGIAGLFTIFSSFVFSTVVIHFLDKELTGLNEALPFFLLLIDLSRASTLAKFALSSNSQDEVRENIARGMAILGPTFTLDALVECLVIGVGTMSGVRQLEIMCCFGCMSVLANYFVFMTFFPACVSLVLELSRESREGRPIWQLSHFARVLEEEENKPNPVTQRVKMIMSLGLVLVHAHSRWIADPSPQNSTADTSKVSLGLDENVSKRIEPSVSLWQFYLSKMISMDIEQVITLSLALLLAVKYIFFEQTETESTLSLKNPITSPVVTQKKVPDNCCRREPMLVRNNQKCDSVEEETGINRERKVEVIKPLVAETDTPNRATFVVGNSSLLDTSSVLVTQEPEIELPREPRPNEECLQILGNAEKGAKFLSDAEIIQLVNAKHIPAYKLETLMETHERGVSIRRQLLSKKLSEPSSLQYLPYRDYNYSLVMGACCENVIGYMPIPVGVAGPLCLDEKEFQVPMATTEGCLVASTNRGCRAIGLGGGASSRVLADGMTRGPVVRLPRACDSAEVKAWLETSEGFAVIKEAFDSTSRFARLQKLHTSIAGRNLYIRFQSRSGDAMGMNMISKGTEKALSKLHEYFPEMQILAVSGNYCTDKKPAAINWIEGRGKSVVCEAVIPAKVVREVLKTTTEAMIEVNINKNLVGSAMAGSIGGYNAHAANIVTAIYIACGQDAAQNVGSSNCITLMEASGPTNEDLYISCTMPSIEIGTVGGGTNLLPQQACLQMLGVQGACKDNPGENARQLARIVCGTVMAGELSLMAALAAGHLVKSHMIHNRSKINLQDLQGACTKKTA

CC1C=Cc2cc(CO)ccc2C1CC[C@@H](O)C[C@@H](O)CC(=O)O (stereo partly drawn)
IC50 (HMG-CoA reductase [1]): 897 nM

CC1C=Cc2cc(CO)ccc2C1CC[C@@H](O)C[C@@H](O)CC(=O)O (stereo partly drawn) [dihydroxy acid derivative]
reversion to the corresponding parent lactone [2]: slowly reverts to the corresponding parent lactone on standing at room temperature

CCC(C)(C)C(=O)O[C@H]1C[C@@H](C)C=C2C=C[C@H](C)[C@H](CC[C@@H]3C[C@@H](O)CC(=O)O3)[C@H]21 [simvastatin]
HMG-CoA reductase inhibitor potency compared with lovastatin (HMG-CoA reductase [3]): even more potent HMG-CoA reductase inhibitor than lovastatin
